Assay results: patent publication US20090175914A1, “Salts or Complexes of Methyl Donors With Phytic Acid or Its Derivatives and Method for the Synthesis Thereof” (priority 2005, published 2009)

Key:
[1] = tested on: peripheral neuropathies caused by diabetes; settings: 500 mg twice a day for two weeks; cited from earlier work
[2] = Stability trial, 5 days at 53° C., degradation evaluated by HPCEC-UV; format: physicochemical
Description: The evaluation of the degradation was carried out by HPCEC-UV analysis using 0.5M (pH 4) ammonium formiate as an eluent, a flow of 1.2 ml/min, and a Supelcosil LC-SCX column (25 cm, 4.6 mm, 5 micron). The product thus obtained was subjected to stability trials according to a procedure similar to the one adopted for the Comparative Example above. […] Also in this case, the evaluation of the degradation was carried out by HPCEC-UV analysis using 0.5M ammonium formiate (pH 4) as an eluent, a flow of 1.2 ml/min, and a Supelcosil LC-SCX column (25 cm, 4.6 mm, 5 μm).

Compound: O[C@H]1[C@H](O)[C@@H](O)[C@H](O)[C@@H](O)[C@H]1O [inositol]
- therapeutic result [1]: considerable results

Compound: SAMe salt with phytic acid [SAMe phytate complex]
- SAMe ion ([2]; Lot 1, after 5 days at 53° C.): 23.2 % p/p
- % Variation of SAMe ion ([2]; Lot 1, after 5 days at 53° C. vs initial): −7.9%
- SAMe ion ([2]; Lot 1, immediately after preparation): 25.2 % p/p
- SAMe ion ([2]; Lot 2, after 5 days at 53° C.): 23.3 % p/p
- % Variation of SAMe ion ([2]; Lot 2, after 5 days at 53° C. vs initial): −7.2%
- SAMe ion ([2]; Lot 2, immediately after preparation): 25.1 % p/p
- SAMe ion ([2]; Lot 3, after 5 days at 53° C.): 23.2 % p/p
- % Variation of SAMe ion ([2]; Lot 3, after 5 days at 53° C. vs initial): −8.3%
- SAMe ion ([2]; Lot 3, immediately after preparation): 25.3 % p/p
- SAMe ion ([2]; Mean of 3 lots, after 5 days at 53° C.): 23.2 % p/p
- % Variation of SAMe ion ([2]; Mean of 3 lots, after 5 days at 53° C. vs initial): −7.8%
- SAMe ion ([2]; Mean of 3 lots, immediately after preparation): 25.2 % p/p

Compound: SAMe Phytate Salt [Example 1]
- stability ([2]; 5 days at 53° C.): very stable
